Test results published in US20130165368A1, “ANTIMICROBIAL COMPOUNDS” (priority 2010, published 2013).
Converted amounts (≈) assume the structure as drawn. Like-named read-outs stand apart in the source and are kept apart here.

How the values were obtained:
Assay type in all cases: cell-based
MRSA EMRSA 16 07924/95 = assay: MIC agar dilution, MRSA strain 49; settings: Staphylococcus aureus
Procedure: (§1) Molar equivalent concentrations were used to allow comparison between compounds of differing molecular mass. Due to weighing difficulties, any compound in solid form was melted in a water bath prior to dilution. To make ten-times strength concentrations, which takes into account agar dilution, 0.0352 mmol of each compound was weighed into plastic universal bottles and 4 mL of sterile distilled water (SDW) was added. To produce a homogenous emulsion the universals were vortexed; once achieved the emulsions were serial diluted by adding 2 mL to 2 mL of SDW.
(§2) For every 100 mL of Isosensitest agar (IST) (CM0471; Oxoid, Basingstoke, England), 3.1 g of the IST powder was added to 100 mL SDW (as per manufacturer's instructions) and sterilised for 15 minutes at 121° C. Once sterilised, the molten agar was cooled to 50° C. in a water-bath. Subsequently 4.8 g of CCEY powder (BC2160; Bioconnections, Wetherby, England), also known as Brazier's medium, was added to 100 mL SDW for every 100 mL of agar needed. This was then sterilised for 15 minutes at 121° C. Once sterilised the molten agar was cooled to 50° C. in a water-bath and 4 mL of egg-yolk emulsion (S2073; TCS Biosciences Ltd, Buckingham, United Kingdom) and 1 mL of lysed defibrinated horse blood (HB035; TCS Biosciences Ltd, Buckingham, United Kingdom) were also added for every 100 mL needed. Horse blood lysis is achieved by dilution to half concentration with SDW; when fully lysed the mixture will turn dark red in colour.
(§3) 18 mL agar was added to each universal and then poured into sterile Petri dishes. This step creates a 1/10 dilution resulting in agar plates of the required strength. Control plates for each set of strains were created by adding 18 mL of agar to 2 mL of SDW.
(§4) Suspensions of each bacterial species were prepared with a density equal to that of a 0.5 McFarland standard using a densitometer. All suspensions were made using sterile distilled water and fresh 18-20 hour cultures. As a 0.5 McFarland standard contains 1.5×10^8 CFU/mL and the multipoint inoculators applies 1 μL spots of liquid, each bacterial suspension was diluted 1/15 (20 μL suspension to 280 μL sterile distilled water).
(§5) Bacterial suspensions were prepared from fresh 18-24 hour cultures as previously described. 1 μL of each strain was inoculated onto all 100 agar plates containing a different chemical concentration and the 2 control plates. This was done using a multipoint inoculator which inoculates 20 strains per plate. All plates were incubated for 22 hours at 37° C. in aerobic conditions.
(§6) Each plate was examined for bacterial growth after 22 and 48 hours, with each being incubated in between examinations. A positive result was recorded as growth of ≧10 colonies. A negative result was recorded as growth of <10 colonies as this is equivalent to 99.9% inhibition. The lowest concentration of chemical that inhibited growth was recorded as the MIC. The results are recorded in Table IV below, where the numbers are quoted in mmol/L.
(§7) Given the positive performance of the ethoxylates of lauryl alcohol in reducing the MIC for a number of the micro-organisms tested, further MIC testing of Laureth-1 [C12E1] through to Laureth-8 [C12E8] was conducted on each of the following: • 10 strains of vancomycin-resistant enterococci (VRE)—listed in Table V below; and • 20 strains of methicillin-resistant Staphylococcus aureus (MRSA)—listed in Table VI.
(§8) The alkanol, alkanol derivatives, agar plates, and inocula were all prepared in the same way as described above.
(§9) The plates were examined in the same manner as described above and the results are recorded in Table VII below, where the numbers are quoted in mmol/L.

MRSA EMRSA 15 1758/98 = assay: MIC agar dilution, MRSA strain 43; settings: Staphylococcus aureus
Procedure: as §1, §2, §3, §4, §5, §6, §7, §8, §9

[1] = test system: Staphylococcus epidermidis; assay: MIC agar dilution, micro-organism 14 (11047); settings: Staphylococcus epidermidis 11047, read-out: MIC
In short: (§10)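 Agar dilution in Isosensitest/CCEY agar with egg yolk and lysed horse blood; compounds as aqueous emulsions (myristyl and lauryl alcohol with 1-methyl-2-pyrrolidone and Tween 20). 1 µL spots of 1/15-diluted 0.5 McFarland suspensions, 37 °C aerobic, read at 22 and 48 h; MIC (mmol/L) is lowest concentration giving <10 colonies.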

[2] = test system: MRSA GER 131/98 (Sger Iidc); assay: MIC agar dilution, MRSA strain 35; settings: Staphylococcus aureus
Procedure: as §1, §2, §3, §4, §5, §6, §7, §8, §9

Enterococcus faecium = assay: MIC agar dilution, micro-organism 16 (7171); settings: Enterococcus faecium 7171, read-out: MIC
In short: as §10

Escherichia coli = assay: MIC agar dilution, micro-organism 1 (10418); settings: Escherichia coli 10418, read-out: MIC
In short: as §10

MRSA EMRSA 15 19972/98 = assay: MIC agar dilution, MRSA strain 39; settings: Staphylococcus aureus
Procedure: as §1, §2, §3, §4, §5, §6, §7, §8, §9

[3] = test system: Enterococcus faecalis (VRE) PHLS URINE 2000; assay: MIC agar dilution, VRE strain 21
Procedure: as §1, §2, §3, §4, §5, §6, §7, §8, §9

MRSA EMRSA 15 1729/98 = assay: MIC agar dilution, MRSA strain 42; settings: Staphylococcus aureus
Procedure: as §1, §2, §3, §4, §5, §6, §7, §8, §9

[4] = test system: MRSA GER 1966/97 (Hanover IIIc); assay: MIC agar dilution, MRSA strain 36; settings: Staphylococcus aureus
Procedure: as §1, §2, §3, §4, §5, §6, §7, §8, §9

Staphylococcus aureus = assay: MIC agar dilution, micro-organism 13 (6571); settings: Staphylococcus aureus 6571, read-out: MIC
In short: as §10

MRSA EMRSA 16 00998/95 = assay: MIC agar dilution, MRSA strain 47; settings: Staphylococcus aureus
Procedure: as §1, §2, §3, §4, §5, §6, §7, §8, §9

Candida glabrata = assay: MIC agar dilution, micro-organism 20 (3943); settings: Nakaseomyces glabratus, Candida glabrata 3943, read-out: MIC
In short: as §10

Compound	MIC (MRSA EMRSA 16 07924/95; 22 hrs) [µM]	MIC (MRSA EMRSA 16 07924/95; 48 hrs) [µM]	MIC (MRSA EMRSA 15 1758/98; 22 hrs) [µM]	MIC (MRSA EMRSA 15 1758/98; 48 hrs) [µM]	MIC ([1]; 22 hrs) [µM]	MIC ([1]; 48 hrs) [µM]	MIC ([2]; 22 hrs) [µM]	MIC ([2]; 48 hrs) [µM]	MIC (Enterococcus faecium; 22 hrs) [µM]	MIC (Enterococcus faecium; 48 hrs) [µM]	MIC (Escherichia coli; 22 hrs) [µM]	MIC (Escherichia coli; 48 hrs) [µM]	MIC (MRSA EMRSA 15 19972/98; 22 hrs) [µM]	MIC (MRSA EMRSA 15 19972/98; 48 hrs) [µM]	MIC ([3]; 22 hrs) [µM]	MIC ([3]; 48 hrs) [µM]	MIC (MRSA EMRSA 15 1729/98; 22 hrs) [µM]	MIC (MRSA EMRSA 15 1729/98; 48 hrs) [µM]	MIC ([4]; 22 hrs) [µM]	MIC ([4]; 48 hrs) [µM]	further results
CCCCCCCCCCCCOCCOCCOCCOCCOCCOCCOCCO [L7, Heptaethylene Glycol Monododecyl Ether]	> 440	> 440	220 (≈ 109 µg/mL)	220 (≈ 109 µg/mL)	110 (≈ 54.4 µg/mL)	110 (≈ 54.4 µg/mL)	110 (≈ 54.4 µg/mL)	220 (≈ 109 µg/mL)	> 880	> 880	> 880	> 880	> 440	> 440	440 (≈ 218 µg/mL)	880 (≈ 435 µg/mL)	440 (≈ 218 µg/mL)	440 (≈ 218 µg/mL)	110 (≈ 54.4 µg/mL)	110 (≈ 54.4 µg/mL)	MIC (Staphylococcus aureus; 22 hrs): 110 µM (≈ 54.4 µg/mL); MIC (Staphylococcus aureus; 48 hrs): 110 µM (≈ 54.4 µg/mL); MIC (MRSA EMRSA 16 00998/95; 22 hrs): > 440 µM; MIC (MRSA EMRSA 16 00998/95; 48 hrs): > 440 µM; MIC (Candida glabrata; 22 hrs): > 880 µM; MIC (Candida glabrata; 48 hrs): > 880 µM
CCCCCCCCCCCCOCCOCCOCCOCCOCCOCCOCCOCCO [L8, Octaethylene Glycol Monododecyl Ether]	> 440	> 440	> 440	> 440	110 (≈ 59.3 µg/mL)	110 (≈ 59.3 µg/mL)	440 (≈ 237 µg/mL)	> 440	> 880	> 880	> 880	> 880	> 440	> 440	220 (≈ 119 µg/mL)	220 (≈ 119 µg/mL)	> 440	> 440	110 (≈ 59.3 µg/mL)	110 (≈ 59.3 µg/mL)	MIC (Staphylococcus aureus; Staphylococcus aureus, 22 h, 22 hrs): 110 µM (≈ 59.3 µg/mL); MIC (Staphylococcus aureus; Staphylococcus aureus, 48 h, 48 hrs): 110 µM (≈ 59.3 µg/mL); MIC (MRSA EMRSA 16 00998/95; 22 hrs): > 440 µM; MIC (MRSA EMRSA 16 00998/95; 48 hrs): > 440 µM; MIC (Candida glabrata; 22 h, 22 hrs): > 880 µM; MIC (Candida glabrata; 48 h, 48 hrs): > 880 µM
